{"source": "patent US20230320382A1", "about": "(DSM IP Assets B.V., priority 2018, published 2023)", "origin": "cited, not measured here", "key": {"[1]": {"conditions": "added to the diet of growing pigs"}}}
{"molecule": "O=C(O)c1ccccc1", "note": "[Benzoic acid]", "values": [{"measurement": "Effect on blood pH", "setting": "[1]", "value": "only slightly reduces"}, {"measurement": "Effect on urine pH", "setting": "[1]", "value": "markedly acidifies"}, {"measurement": "Site of absorption", "setting": "ingested benzoic acid", "value": "absorbed in the first tract of the small intestine"}]}
